# Measurements as given in patent US20230167088A1, “1-PYRAZINYLPYRAZOLYL-3-OXYALKYL ACIDS AND THEIR DERIVATIVES, AND THEIR USE FOR CONTROL OF UNDESIRED PLANT GROWTH” (BAYER AKTIENGESELLSCHAFT, priority 2020, published 2023).
# Tests used:
# MATIN [1] = test: Herbicidal pre-emergence action 2a (greenhouse pots, visual scoring); type: in vivo, Matricaria inodora; details: dosage 320 g/ha, visual scoring after about 3 weeks vs untreated controls
# Summary of the method: (§1)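 Pots of covered seed were sprayed pre-emergence at 320 and/or 80 g/ha. Roughly three weeks of greenhouse growth preceded visual scoring in percent versus untreated controls.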
# STEME = test: Herbicidal pre-emergence action 2b (doubly sown, 1280 g/ha); type: in vivo, Stellaria media; details: doubly sown pots, dosage 1280 g/ha, visual scoring after about 3 weeks
# Summary of the method: (§2)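 Weed seeds sown in sandy loam, two species per pot, covered with soil; compounds as WP or EC applied to soil surface as aqueous suspension/emulsion with 0.5% additive at 600 L/ha water. Greenhouse growth; visual % activity vs untreated controls after about 3 weeks (100% = dead, 0% = like control).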
# AMARE = test: Herbicidal pre-emergence action 2a (greenhouse pots, visual scoring); type: in vivo, Amaranthus retroflexus; details: dosage 320 g/ha, visual scoring after about 3 weeks vs untreated controls
# Summary of the method: as §1
# ALOMY [2] = test: as above; type: in vivo, Alopecurus myosuroides; details: dosage 320 g/ha, visual scoring after about 3 weeks
# Summary of the method: as §1
# ALOMY [3] = test: Herbicidal post-emergence action 1a (greenhouse pots, visual rating); type: in vivo, Alopecurus myosuroides; details: rated visually about 3 weeks after treatment, 100% = plants have died, 0% = like control plants
# Summary of the method: (§3)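 Weeds and crops sown in sandy loam in greenhouse pots were sprayed post-emergence at the one-leaf stage (2–3 weeks after sowing) with WP or EC formulations plus 0.5% additive at 600 l/ha water, 320 and/or 80 g/ha. About 3 weeks later damage was rated visually against untreated controls (0% = no effect, 100% = dead).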
# MATIN [4] = test: Herbicidal post-emergence action 1b (twin sowing, 1280 g/ha); type: in vivo, Matricaria inodora; details: dosage 1280 g/ha, visual rating about 3 weeks after treatment
# Summary of the method: (§4)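 Twin-sown mono- and dicot weeds in sandy loam were sprayed post-emergence at the one-leaf stage, 2–3 weeks after sowing, with WP or EC formulations in water plus 0.5% additive at 600 L/ha. After about 3 weeks in the greenhouse, activity was rated visually against untreated controls (0% = like control, 100% = plants dead).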
# ABUTH = test: as above; type: in vivo, Abutilon theophrasti; details: dosage 1280 g/ha, visual rating about 3 weeks after treatment
# Summary of the method: as §4
# POLCO [5] = test: Herbicidal pre-emergence action 2a (greenhouse pots, visual scoring); type: in vivo, Polygonum convolvulus; details: dosage 320 g/ha, visual scoring after about 3 weeks vs untreated controls
# Summary of the method: as §1
# SETVI [6] = test: as above; type: in vivo, Setaria viridis; details: dosage 320 g/ha, visual scoring after about 3 weeks vs untreated controls
# Summary of the method: as §1
# ECHCG [7] = test: Herbicidal pre-emergence action 2b (doubly sown, 1280 g/ha); type: in vivo, Echinochloa crus-galli; details: doubly sown pots, dosage 1280 g/ha, visual scoring after about 3 weeks
# Summary of the method: as §2
# ECHCG [8] = test: Herbicidal post-emergence action 1b (twin sowing, 1280 g/ha); type: in vivo, Echinochloa crus-galli; details: dosage 1280 g/ha, visual rating about 3 weeks after treatment
# Summary of the method: as §4
# DIGSA [9] = test: as above; type: in vivo, Digitaria sanguinalis; details: dosage 1280 g/ha, visual rating about 3 weeks after treatment
# Summary of the method: as §4
# DIGSA [10] = test: Herbicidal pre-emergence action 2b (doubly sown, 1280 g/ha); type: in vivo, Digitaria sanguinalis; details: doubly sown pots, dosage 1280 g/ha, visual scoring after about 3 weeks
# Summary of the method: as §2
# POLCO [11] = test: Herbicidal post-emergence action 1a (greenhouse pots, visual rating); type: in vivo, Polygonum convolvulus; details: visual rating about 3 weeks after treatment
# Summary of the method: as §3
# VERPE = test: as above; type: in vivo, Veronica persica; details: visual rating about 3 weeks after treatment
# Summary of the method: as §3
# SETVI [12] = test: as above; type: in vivo, Setaria viridis; details: rated visually about 3 weeks after treatment, 100% = plants have died, 0% = like control plants
# Summary of the method: as §3
Structure (SMILES),Pre-emergence action against MATIN in % (MATIN [1]) [%],Pre-emergence action at 1280 g/ha against STEME in % (STEME) [%],Pre-emergence action against AMARE in % (AMARE) [%],Pre-emergence action against ALOMY in % (ALOMY [2]) [%],Post-emergence action against ALOMY in % (ALOMY [3]; Dosage 80 g/ha) [%],Post-emergence action against ALOMY in % (ALOMY [3]; Dosage 320 g/ha) [%],Post-emergence action at 1280 g/ha against MATIN in % (MATIN [4]) [%],Post-emergence action at 1280 g/ha against ABUTH in % (ABUTH) [%],Pre-emergence action against POLCO in % (POLCO [5]) [%],Pre-emergence action against SETVI in % (SETVI [6]) [%],Pre-emergence action at 1280 g/ha against ECHCG in % (ECHCG [7]) [%],Post-emergence action at 1280 g/ha against ECHCG in % (ECHCG [8]) [%],Post-emergence action at 1280 g/ha against DIGSA in % (DIGSA [9]) [%],Pre-emergence action at 1280 g/ha against DIGSA in % (DIGSA [10]) [%],Post-emergence action against POLCO in % (POLCO [11]; dosage 320 g/ha) [%],Post-emergence action against VERPE in % (VERPE; dosage 320 g/ha) [%],Post-emergence action against SETVI in % (SETVI [12]; Dosage 320 g/ha) [%],Post-emergence action against POLCO in % (POLCO [11]; dosage 80 g/ha) [%],Post-emergence action against SETVI in % (SETVI [12]; Dosage 80 g/ha) [%],Post-emergence action against VERPE in % (VERPE; dosage 80 g/ha) [%]
COC(=O)[C@@H](C)Oc1nn(-c2cnccn2)c(-c2ccc(F)c(F)c2)c1C#N [Example I-46],100,100,100,100,90,90,90,90,100,100,100,100,100,100,100,80,,,,
COC(=O)[C@@H](C)Oc1nn(-c2cnccn2)c(-c2cncc(F)c2)c1C#N [Example I-40],,100,90,100,80,90,100,,80,100,100,,90,100,80,80,90,80,,
COC(=O)[C@@H](C)Oc1nn(-c2cnccn2)c(-c2ccnc(F)c2)c1Br [Example I-34],,100,90,100,80,100,90,,100,100,90,100,100,100,100,80,90,,80,
COC(=O)[C@@H](C)Oc1nn(-c2cnccn2)c(-c2cncc(F)c2)c1Br [Example I-39],90,100,100,100,90,100,90,,90,100,100,100,100,100,90,90,80,,80,80
CCOC(=O)COc1nn(-c2cnccn2)c(-c2ccc(F)nc2)c1Cl [Example I-53],100,100,100,100,,,100,90,90,100,100,100,100,100,90,,,90,80,80
COC(=O)[C@@H](C)Oc1nn(-c2cnccn2)c(-c2ccc(F)c(F)c2)c1Br [Example I-45],100,100,100,100,90,90,,90,100,100,100,100,100,100,100,80,80,,,
COC(=O)C(C)Oc1nn(-c2cnccn2)c(-c2ccc(F)c(F)c2)c1C#N (racemic) [Example I-22],,100,90,100,90,100,90,,80,100,100,,,,80,90,80,,80,80
COC(=O)[C@@H](C)Oc1nn(-c2cnccn2)c(-c2cccc(F)c2)c1Br [Example I-20],90,100,100,90,80,90,100,90,80,100,100,100,,,80,90,90,,80,80
COC(=O)C(C)Oc1nn(-c2cnccn2)c(-c2ccc(F)c(F)c2)c1Br (racemic) [Example I-16],90,100,100,90,90,100,90,90,90,100,100,100,,,90,80,90,,80,
